Data published in ChEMBL document CHEMBL1201862, “PubChem BioAssay data set” (2004).
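A five-concentration, 48-hour dose response in 96-well plates underlies each endpoint, interpolated linearly between surrounding concentrations. The concentration for 50% growth inhibition is given as GI50.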 The source made the active and inactive calls. No stated cut-off is given here; in the data, active = GI50 up to about 1.1 µM and inactive = higher.

Assays:
Test in all cases: NCI anticancer screen, dose series, 48 h
[1] = test system: DU-145
[2] = test system: 786-0
[3] = test system: NCI/ADR-RES
[4] = test system: BT-549
[5] = test system: SK-MEL-2
[6] = test system: UO-31
[7] = test system: OVCAR-4
[8] = test system: Malme-3M
[9] = test system: CAKI-1
[10] = test system: SK-MEL-28
[11] = test system: T47D
[12] = test system: OVCAR-8
[13] = test system: PC-3
[14] = test system: MDA-N
[15] = test system: SK-OV-3
[16] = test system: U-251
[17] = test system: HOP-62
[18] = test system: Hs-578T
[19] = test system: OVCAR-3
[20] = test system: IGROV-1
[21] = test system: A498
[22] = test system: KM12
[23] = test system: NCI-H226
[24] = test system: CCRF-CEM
[25] = test system: RPMI-8226
[26] = test system: HCT-116
[27] = test system: UACC-257
[28] = test system: HCT-15
[29] = test system: TK-10
[30] = test system: UACC-62
[31] = test system: SK-MEL-5
[32] = test system: NCI-H522
[33] = test system: M14
[34] = test system: SF-295
[35] = test system: COLO 205
[36] = test system: SNB-75
[37] = test system: SF-539
[38] = test system: MOLT-4
[39] = test system: EKVX
[40] = test system: A549
[41] = test system: SNB-19
[42] = test system: OVCAR-5
[43] = test system: SW-620
[44] = test system: SF-268
[45] = test system: MDA-MB-231
[46] = test system: RXF 393
[47] = test system: HCC 2998
[48] = test system: SN12C
[49] = test system: LOX IMVI
[50] = test system: MDA-MB-435
[51] = test system: NCI-H23
[52] = test system: MCF7
[53] = test system: ACHN
[54] = test system: HOP-92
[55] = test system: SR
[56] = test system: HT-29
[57] = test system: NCI-H460
[58] = test system: HL-60
[59] = test system: K562

COC(=O)[C@H](Cc1ccccc1)NC(=O)N(CCN(CCC#N)C(=O)N[C@H](C(=O)OC)C(C)C)c1ccccc1
GI50 [1]: > 100 µM (inactive)
GI50 [2]: > 100 µM (inactive)
GI50 [3]: > 100 µM (inactive)
GI50 [4]: > 100 µM (inactive)
GI50 [5]: 41.8 µM (inactive)
GI50 [6]: > 100 µM (inactive)
GI50 [7]: 53.3 µM (inactive)
GI50 [8]: 43.7 µM (inactive)
GI50 [9]: > 100 µM (inactive)
GI50 [10]: > 100 µM (inactive)
GI50 [11]: 49.4 µM (inactive)
GI50 [12]: > 100 µM (inactive)
GI50 [13]: > 100 µM (inactive)
GI50 [14]: > 100 µM (inactive)
GI50 [15]: > 100 µM (inactive)
GI50 [16]: > 100 µM (inactive)
GI50 [17]: > 100 µM (inactive)
GI50 [18]: > 100 µM (inactive)
GI50 [19]: > 100 µM (inactive)
GI50 [20]: 57.5 µM (inactive)
GI50 [21]: > 100 µM (inactive)
GI50 [22]: > 100 µM (inactive)
GI50 [23]: > 100 µM (inactive)
GI50 [24]: 33.7 µM (inactive)
GI50 [25]: 33.2 µM (inactive)
GI50 [26]: > 100 µM (inactive)
GI50 [27]: 32.1 µM (inactive)
GI50 [28]: > 100 µM
GI50 [29]: > 100 µM (inactive)
GI50 [30]: 48.5 µM (inactive)
GI50 [31]: 52.6 µM (inactive)
GI50 [32]: 30.3 µM (inactive)
GI50 [33]: > 100 µM (inactive)
GI50 [34]: > 100 µM (inactive)
GI50 [35]: > 100 µM (inactive)
GI50 [36]: > 100 µM (inactive)
GI50 [37]: > 100 µM (inactive)
GI50 [38]: 24.3 µM (inactive)
GI50 [39]: > 100 µM (inactive)
GI50 [40]: > 100 µM (inactive)
GI50 [41]: > 100 µM (inactive)
GI50 [42]: > 100 µM (inactive)
GI50 [43]: > 100 µM (inactive)
GI50 [44]: > 100 µM (inactive)
GI50 [45]: > 100 µM (inactive)
GI50 [46]: > 100 µM (inactive)
GI50 [47]: > 100 µM (inactive)
GI50 [48]: > 100 µM (inactive)
GI50 [49]: > 100 µM (inactive)
GI50 [50]: 85.3 µM (inactive)
GI50 [51]: > 100 µM (inactive)
GI50 [52]: > 100 µM (inactive)
GI50 [53]: > 100 µM (inactive)
GI50 [54]: 22.8 µM (inactive)

O=[N+]([O-])c1ccc(-c2nc3cc(Cl)ccc3[nH]2)cc1
GI50 [1]: 72.1 µM (inactive)
GI50 [55]: 34.6 µM (inactive)
GI50 [2]: 86.7 µM (inactive)
GI50 [3]: 31.3 µM (inactive)
GI50 [4]: 99.1 µM (inactive)
GI50 [56]: 51.4 µM (inactive)
GI50 [6]: 26.1 µM (inactive)
GI50 [7]: 95.5 µM (inactive)
GI50 [8]: > 100 µM (inactive)
GI50 [9]: 62.7 µM (inactive)
GI50 [10]: > 100 µM (inactive)
GI50 [11]: 39.1 µM (inactive)
GI50 [12]: 59.6 µM (inactive)
GI50 [13]: 32.7 µM (inactive)
GI50 [14]: 39.7 µM (inactive)
GI50 [57]: 37.2 µM (inactive)
GI50 [15]: > 100 µM (inactive)
GI50 [17]: > 100 µM (inactive)
GI50 [18]: > 100 µM (inactive)
GI50 [19]: 45.1 µM (inactive)
GI50 [20]: 81.3 µM (inactive)
GI50 [23]: 82.6 µM (inactive)
GI50 [25]: 25.5 µM (inactive)
GI50 [26]: 49.2 µM (inactive)
GI50 [27]: 76 µM (inactive)
GI50 [28]: 52 µM
GI50 [29]: > 100 µM (inactive)
GI50 [30]: 81.1 µM (inactive)
GI50 [31]: 51.4 µM (inactive)
GI50 [32]: 14.4 µM (inactive)
GI50 [33]: 60.7 µM (inactive)
GI50 [34]: 39.2 µM (inactive)
GI50 [35]: 32.9 µM (inactive)
GI50 [36]: 73.5 µM (inactive)
GI50 [37]: 54.6 µM (inactive)
GI50 [38]: 64 µM (inactive)
GI50 [39]: 69.5 µM (inactive)
GI50 [40]: 42.3 µM (inactive)
GI50 [41]: 78.5 µM (inactive)
GI50 [43]: 62.4 µM (inactive)
GI50 [44]: > 100 µM (inactive)
GI50 [45]: > 100 µM (inactive)
GI50 [48]: 43.6 µM (inactive)
GI50 [49]: 46.2 µM (inactive)
GI50 [50]: 41.6 µM (inactive)
GI50 [51]: 42.5 µM (inactive)
GI50 [52]: 27.3 µM (inactive)
GI50 [53]: 50.1 µM (inactive)
GI50 [54]: 46.7 µM (inactive)

Fc1cc(F)c(F)c(S)c1F
GI50 [1]: > 100 µM (inactive)
GI50 [2]: > 100 µM (inactive)
GI50 [3]: 19.4 µM (inactive)
GI50 [4]: 26 µM (inactive)
GI50 [56]: 92.9 µM (inactive)
GI50 [5]: > 100 µM (inactive)
GI50 [6]: > 100 µM (inactive)
GI50 [7]: 62.4 µM (inactive)
GI50 [8]: > 100 µM (inactive)
GI50 [9]: > 100 µM (inactive)
GI50 [10]: > 100 µM (inactive)
GI50 [58]: 30.1 µM (inactive)
GI50 [11]: > 100 µM (inactive)
GI50 [12]: 41.1 µM (inactive)
GI50 [59]: 57.4 µM (inactive)
GI50 [13]: 19.8 µM (inactive)
GI50 [14]: > 100 µM (inactive)
GI50 [57]: > 100 µM (inactive)
GI50 [15]: 65.6 µM (inactive)
GI50 [16]: > 100 µM (inactive)
GI50 [17]: > 100 µM (inactive)
GI50 [18]: 37.5 µM (inactive)
GI50 [19]: > 100 µM (inactive)
GI50 [20]: > 100 µM (inactive)
GI50 [21]: 17.5 µM (inactive)
GI50 [22]: > 100 µM (inactive)
GI50 [23]: > 100 µM (inactive)
GI50 [24]: 29.5 µM (inactive)
GI50 [25]: 31.3 µM (inactive)
GI50 [26]: > 100 µM (inactive)
GI50 [27]: > 100 µM (inactive)
GI50 [28]: 59.6 µM
GI50 [29]: > 100 µM (inactive)
GI50 [30]: > 100 µM (inactive)
GI50 [31]: > 100 µM (inactive)
GI50 [32]: 15.5 µM (inactive)
GI50 [33]: > 100 µM (inactive)
GI50 [34]: > 100 µM (inactive)
GI50 [35]: > 100 µM (inactive)
GI50 [36]: > 100 µM (inactive)
GI50 [37]: > 100 µM (inactive)
GI50 [38]: 23.8 µM (inactive)
GI50 [39]: 25.9 µM (inactive)
GI50 [40]: 36.6 µM (inactive)
GI50 [41]: > 100 µM (inactive)
GI50 [42]: > 100 µM (inactive)
GI50 [43]: 59.7 µM (inactive)
GI50 [44]: 77.3 µM (inactive)
GI50 [45]: 22.1 µM (inactive)
GI50 [46]: 23.7 µM (inactive)
GI50 [47]: 34.4 µM (inactive)
GI50 [48]: 20.4 µM (inactive)
GI50 [49]: > 100 µM (inactive)
GI50 [50]: > 100 µM (inactive)
GI50 [51]: > 100 µM (inactive)
GI50 [52]: > 100 µM (inactive)
GI50 [53]: > 100 µM (inactive)
GI50 [54]: > 100 µM (inactive)
